EC50 data for 22 molecules are collected here from US8765730B2 (Hoffmann-La Roche Inc, priority 2010, dated 2014).

By EC50 is commonly meant the concentration at which the effect is half-maximal.

One test has as its target T1, human GPBAR1 receptor (Homo sapiens, UniProt Q8TDU6).
T1 construct: expressed in transfected cells
T1 sequence (Q8TDU6 1-330): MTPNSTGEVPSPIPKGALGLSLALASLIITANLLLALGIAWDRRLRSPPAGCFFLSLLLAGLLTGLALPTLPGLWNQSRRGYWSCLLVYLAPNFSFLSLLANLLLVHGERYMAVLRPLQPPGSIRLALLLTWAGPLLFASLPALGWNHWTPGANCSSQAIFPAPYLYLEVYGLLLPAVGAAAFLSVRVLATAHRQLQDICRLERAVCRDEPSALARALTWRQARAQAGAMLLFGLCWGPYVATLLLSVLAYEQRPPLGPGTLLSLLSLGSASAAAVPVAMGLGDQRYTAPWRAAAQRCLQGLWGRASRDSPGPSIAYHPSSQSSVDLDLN
Put plainly: functional cAMP assay in CHO-dhfr(minus) cells expressing human GPBAR1 receptors. The test is classed as cell-based. Particulars: functional cAMP assay, 30 min at 30° C., read-out: human EC50. As for the experimental part:
The final clone was verified by DNA sequence analysis. The plasmid was transfected into CHO cells deficient in dihydrofolate reductase activity (CHO-dhfr−) using Lipofectamine plus (Invitrogen). Clones were isolated in limited dilution conditions and identified by activities in the cAMP assay using lithocholic acid as agonist.
The growth medium was exchanged with Krebs Ringer Bicarbonate buffer with 1 mM IBMX and incubated at 30° C. for 30 min. Compounds were added to a final assay volume of 100 μl and incubated for 30 min at 30° C. […] The time-resolved energy transfer is measured by a TRF reader (Evotec Technologies GmbH, Hamburg Germany), equipped with a ND:YAG laser as excitation source.
EC50 values were determined using Activity Base analysis (ID Business Solution, Limited). […] Specificity for GPBAR1 was tested in non-transfected CHO cells in the same assay as above.
A general note: Changes in cAMP serve as a functional read-out for many G protein-coupled receptors.
Take `Cc1ccccc1[C@H](C/C(=N\O)c1ccnc(CO)c1)c1ccc(N2CCC(C(=O)O)CC2)cc1` [Example 374, (R,E)-1-(4-(3-(Hydroxyimino)-3-(2-(hydroxymethyl)pyridin-4-yl)-1-o-tolylpropyl)phenyl)-piperidine-4-carboxylic acid]: the EC50 stood at 31 nM.

Staying with this test, now noted: human EC50, functional cAMP assay, 30 min at 30° C.
In turn, `COC(=O)CNC(=O)c1ccc(-c2ccc(C(C/C(=N\O)c3ccc(=O)n(C)c3)c3ccc(Cl)cc3C)cc2)cc1` (single isomer, unassigned; (+)) [Example 254, (+)-({4′-[1-(4-chloro-2-methyl-phenyl)-3-[(E)-hydroxyimino]-3-(1-methyl-6-oxo-1,6-dihydro-pyridin-3-yl)-propyl]-biphenyl-4-carbonyl}-amino)-acetic acid methyl ester] had a concentration giving a half-maximal response (EC50) of 60 nM.

With `Cc1cc(/C(CC(c2ccc(Br)cc2)c2ccc(Cl)cc2F)=N/O)ccn1` (stereo not shown) [Example 147, (E)-3-(4-Bromo-phenyl)-3-(4-chloro-2-fluoro-phenyl)-1-(2-methyl-pyridin-4-yl)-propan-1-one oxime], the EC50 was determined as 467 nM.

In turn, `Cc1ccccc1C(C/C(=N\O)c1ccc(=O)n(C)c1)c1ccc(C(=O)N2CCOCC2)cc1` (stereo not shown) [Example 207, 5-{1-[(E)-Hydroxyimino]-3-[4-(morpholine-4-carbonyl)-phenyl]-3-o-tolyl-propyl}-1-methyl-1H-pyridin-2-one] registered an EC50 of 711 nM.

The molecule `Cc1ccccc1C(C/C(=N\O)c1ccc(=O)n(C)c1)c1ccc(Br)cc1F` (stereo not shown) [Example 193, 5-{3-(4-Bromo-2-fluoro-phenyl)-1-[(E)-hydroxyimino]-3-o-tolyl-propyl}-1-methyl-1H-pyridin-2-one] showed a half-maximal effective concentration (EC50) of 19 nM.

Molecule `Cc1ccccc1C(C/C(=N\O)c1ccc(=O)n(C)c1)c1ccc(C(=O)N(C)CC(=O)O)cc1` (stereo not shown) [Example 211, ({4-[3-[(E)-Hydroxyimino]-3-(1-methyl-6-oxo-1,6-dihydro-pyridin-3-yl)-1-o-tolyl-propyl]-benzoyl}-methyl-amino)-acetic acid] came in with a concentration for a half-maximal effect (EC50) of 5980 nM.

For `Cc1ccccc1C(C/C(=N\O)c1ccc(=O)n(C)c1)c1ccc(C(=O)NCC(O)C(F)(F)F)cc1` (stereo not shown) [Example 309, (E)-4-(3-(Hydroxyimino)-3-(1-methyl-6-oxo-1,6-dihydropyridin-3-yl)-1-o-tolylpropyl)-N-(3,3,3-trifluoro-2-hydroxypropyl)benzamide], the EC50 is 130 nM.

As to `C#Cc1ccc([C@@H](CC(=NO)c2ccnc(C)c2)c2ccccc2C)cc1` [Example 287, (R)-3-(4-Ethynyl-phenyl)-1-(2-methyl-pyridin-4-yl)-3-o-tolyl-propan-1-one oxime], the concentration giving a half-maximal response (EC50) is 2 nM.

The molecule `Cc1cc(/C(CC(c2ccc(-c3ccc(S(C)(=O)=O)cc3)cc2)c2ccccc2C(F)(F)F)=N/O)ccn1` (stereo not shown) [Example 133, (E)-3-(4′-Methanesulfonyl-biphenyl-4-yl)-1-(2-methyl-pyridin-4-yl)-3-(2-trifluoromethyl-phenyl)-propan-1-one oxime] came in with an EC50 of 114 nM.

`Cn1cc(/C(CC(c2ccc(Br)cc2)c2ccc(Cl)cc2F)=N/O)ccc1=O` (single isomer, unassigned; (-)) [Example 240, (−)-5-{3-(4-Bromo-phenyl)-3-(4-chloro-2-fluoro-phenyl)-1-[(E)-hydroxyimino]-propyl}-1-methyl-1H-pyridin-2-one] registered an EC50 of 31 nM.

In turn, `Cc1cc(/C(C[C@@H](c2ccc(-c3ccc(C(=O)O)c(Cl)c3)cc2)c2ccc(Cl)cc2F)=N/O)ccn1` (single isomer, unassigned) [Example 453, (+)-3-Chloro-4′-[1-(4-chloro-2-fluoro-phenyl)-3-[(E)-hydroxyimino]-3-(2-methyl-pyridin-4-yl)-propyl]-biphenyl-4-carboxylic acid] showed an EC50 of 5 nM.

On to `Cc1cc(/C(C[C@H](c2ccc(C3CNC3)cc2)c2ccccc2C)=N/O)ccn1` [Example 482, (R,E)-3-(4-(Azetidin-3-yl)phenyl)-1-(2-methylpyridin-4-yl)-3-o-tolylpropan-1-one oxime], for which the midpoint of the response, the EC50, lay at 127 nM.

The molecule `Cc1cc(F)ccc1C(C/C(=N\O)c1ccc(=O)n(C)c1)c1ccc(-c2ccc(S(N)(=O)=O)cc2)cc1` (stereo not shown) [Example 401, 4′-[1-(4-Fluoro-2-methyl-phenyl)-3-[(E)-hydroxyimino]-3-(1-methyl-6-oxo-1,6-dihydro-pyridin-3-yl)-propyl]-biphenyl-4-sulfonic acid amide] came in with an EC50 of 5 nM.

`Cc1ccccc1C(CC(=NO)c1ccncc1)c1ccc(C(=O)O)cc1` (racemic) [Example 70, 4-{3-[Hydroxyimino]-3-pyridin-4-yl-1-o-tolyl-propyl}-benzoic acid]: a half-maximal effect (EC50) was put at 2730 nM.

For `Cc1ccccc1[C@H](C/C(=N\O)c1ccnc(Cl)c1)c1ccc(-c2ccc(C(=O)O)cc2)cc1` [Example 290, 4′-{(R)-3-(2-Chloro-pyridin-4-yl)-3-[(E)-hydroxyimino]-1-o-tolyl-propyl}-biphenyl-4-carboxylic acid], the 50% effective concentration (EC50) is 37 nM.

On to `Cn1cc(/C(CC(c2ccc(C(=O)N[C@H]3CC[C@H](C(=O)O)CC3)c(F)c2)c2ccccc2Cl)=N/O)ccc1=O` (stereo partly drawn) [Example 231, Trans-4-{4-[1-(2-Chloro-phenyl)-3-[(E)-hydroxyimino]-3-(1-methyl-6-oxo-1,6-dihydro-pyridin-3-yl)-propyl]-2-fluoro-benzoylamino}-cyclohexanecarboxylic acid], for which the EC50 was 283 nM.

In turn, `Cc1cc(/C(C[C@H](c2ccc(N3CCC(C(=O)O)CC3)cc2)c2ccc(F)cc2F)=N/O)ccn1` (single isomer, unassigned) [Example 427, 1-{4-[(−)-1-(2,4-Difluoro-phenyl)-3-[(E)-hydroxyimino]-3-(2-methyl-pyridin-4-yl)-propyl]-phenyl}-piperidine-4-carboxylic acid] returned a concentration for a half-maximal effect (EC50) of 4 nM.

Molecule `Cc1cc(/C(C[C@H](c2ccc(C3CN(C(=O)OC(C)(C)C)C3)cc2)c2ccccc2C)=N/O)ccn1` [Example 481, (R,E)-tert-Butyl 3-(4-(3-(hydroxyimino)-3-(2-methylpyridin-4-yl)-1-o-tolylpropyl)phenyl)-azetidine-1-carboxylate] returned a 50% effective concentration (EC50) of 153 nM.

Take `Cc1cc(C(CC(c2ccc(CCCO)cc2)c2ccccc2C)=NO)ccn1` (racemic) [Example 88, 3-[4-(3-Hydroxy-propyl)-phenyl]-1-(2-methyl-pyridin-4-yl)-3-o-tolyl-propan-1-one oxime]: the 50% effective concentration (EC50) came to 12 nM.

As for `CCn1cc(/C(CC(c2ccc(Br)cc2)c2ccccc2C)=N\O)ccc1=O` (stereo not shown) [Example 165, 5-{3-(4-Bromo-phenyl)-1-[(Z)-hydroxyimino]-3-o-tolyl-propyl}-1-ethyl-1H-pyridin-2-one], a half-maximal effect (EC50) was put at 550 nM.

For `Cn1cc(/C(CC(c2ccc(-c3ccc(C(=O)O)cc3)cc2)c2ccc(Cl)cc2F)=N/O)ccc1=O` (single isomer, unassigned; (-)) [Example 242, (−)-4′-[1-(4-Chloro-2-fluoro-phenyl)-3-[(E)-hydroxyimino]-3-(1-methyl-6-oxo-1,6-dihydro-pyridin-3-yl)-propyl]-biphenyl-4-carboxylic acid], a half-maximal effect (EC50) was put at 370 nM.

As for `Cc1cc(Cl)ccc1C(C/C(=N\O)c1ccc(=O)n(C)c1)c1ccc(-c2ccc(C(=O)NCc3nnn[nH]3)cc2)cc1` (stereo not shown) [Example 230, (E)-N-((1H-tetrazol-5-yl)methyl)-4′-(1-(4-chloro-2-methylphenyl)-3-(hydroxyimino)-3-(1-methyl-6-oxo-1,6-dihydropyridin-3-yl)propyl)biphenyl-4-carboxamide], the midpoint of the response, the EC50, lay at 18 nM.
